Assay results from patent publication US20230167088A1, “1-PYRAZINYLPYRAZOLYL-3-OXYALKYL ACIDS AND THEIR DERIVATIVES, AND THEIR USE FOR CONTROL OF UNDESIRED PLANT GROWTH” (BAYER AKTIENGESELLSCHAFT, priority 2020, published 2023).

How the values were obtained:
VIOTR [1] = assay: Herbicidal pre-emergence action 2a (greenhouse pots, visual scoring); assay type: in vivo, Viola tricolor; conditions: dosage 320 g/ha, visual scoring after about 3 weeks vs untreated controls
Method in brief: (§1)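 Percent effect (0% like control, 100% plants died) was scored by eye roughly 3 weeks post-application. Formulated compound went onto the soil covering freshly sown seeds in water at 600 l/ha with 0.5% additive; dose 320 g/ha and/or 80 g/ha.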

LOLRI [2] = assay: Herbicidal post-emergence action 1a (greenhouse pots, visual rating); assay type: in vivo, Lolium rigidum; conditions: rated visually about 3 weeks after treatment, 100% = plants have died, 0% = like control plants
Method in brief: (§2)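 Visual scoring versus untreated plants (100% = plants dead, 0% = as control) followed roughly 3 weeks in the greenhouse after treatment. Plants grown in sandy loam pots had been sprayed on green parts at the one-leaf stage, 2–3 weeks post-sowing, with aqueous WP/EC preparations containing 0.5% additive, 600 l/ha, at 320 and/or 80 g/ha.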

ECHCG [3] = assay: Herbicidal pre-emergence action 2a (greenhouse pots, visual scoring); assay type: in vivo, Echinochloa crus-galli; conditions: dosage 320 g/ha, visual scoring after about 3 weeks
Source text: (§3) [table] a) Seeds of monocotyledonous and dicotyledonous weed plants and crop plants are placed in plastic or organic plant pots and covered with soil. The compounds of the invention, formulated in the form of wettable powders (WP) or as emulsion concentrates (EC), are then applied onto the surface of the covering soil as aqueous suspension or emulsion with addition of 0.5% additive at a water application rate of 600 1/ha (converted). After the treatment, the pots are placed in a greenhouse and kept under good growth conditions for the trial plants. After about 3 weeks, the effect of the preparations is scored visually in comparison with untreated controls as percentages. For example, 100% activity=the plants have died, 0% activity=like control plants. Tables B1 to B15 below show the effects of selected compounds of the general formula (I) according to Tables 1 and 2 on various harmful plants and an application rate corresponding to 320 g/ha and/or 80 g/ha, which were obtained by the experimental procedure mentioned above.

ALOMY [4] = assay: as above; assay type: in vivo, Alopecurus myosuroides; conditions: dosage 320 g/ha, visual scoring after about 3 weeks
Method in brief: as §1

harmful plants [5] = assay: Herbicidal pre-emergence action 2a, summary across species; assay type: in vivo; conditions: Tables B1 to B15 (320 g/ha and/or 80 g/ha)
Source text: as §3, with “a)” for “[table] a)”, “plants.” for “plants. Tables B1 to B15 below show the effects of selected compounds of the general formula (I) according to Tables 1 and 2 on various harmful plants and an application rate corresponding to 320 g/ha and/or 80 g/ha, which were obtained by the experimental procedure mentioned above.”
Tables B1 to B15 below show the effects of selected compounds of the general formula (I) according to Tables 1 and 2 on various harmful plants and an application rate corresponding to 320 g/ha and/or 80 g/ha, which were obtained by the experimental procedure mentioned above.
For example, compound nos. I-07, I-08, I-11, I-12, I-13, I-16, I-17, I-20, I-36, I-37, I-39, I-45, I-46, I-48, I-52 and I-53 in the pre-emergence method have very good action (80% to 100% herbicidal activity) against harmful plants such as Alopecurus myosuroides, Amaranthus retroflexus, Digitaria sanguinalis, Lolium rigidum, Polygonum convolvulus, Setaria viridis, Veronica persica and Viola tricolor at an application rate of 0.32 kg of active substance per hectare.

VERPE [6] = assay: Herbicidal post-emergence action 1a (greenhouse pots, visual rating); assay type: in vivo, Veronica persica; conditions: visual rating about 3 weeks after treatment
Method in brief: as §2

ALOMY [7] = assay: as above; assay type: in vivo, Alopecurus myosuroides; conditions: rated visually about 3 weeks after treatment, 100% = plants have died, 0% = like control plants
Method in brief: as §2

ECHCG [8] = assay: as above; assay type: in vivo, Echinochloa crus-galli; conditions: Dosage 320 g/ha; rated visually about 3 weeks after treatment; 100% = plants have died, 0% = like control plants
Procedure: (§4) [table] a) Seeds of monocotyledonous and dicotyledonous weeds and crop plants are placed in sandy loam in plastic or organic plant pots, covered with soil and cultivated in a greenhouse under controlled growth conditions. 2 to 3 weeks after sowing, the test plants are treated at the one-leaf stage. The compounds of the invention, formulated in the form of wettable powders (WP) or as emulsion concentrates (EC), are then sprayed onto the green parts of the plants as aqueous suspension or emulsion with addition of 0.5% additive at a water application rate of 600 1/ha (converted). After the test plants have been kept in the greenhouse under optimum growth conditions for about 3 weeks, the activity of the preparations is rated visually in comparison to untreated controls. For example, 100% activity=the plants have died, 0% activity=like control plants. Tables A1 to A15 below show the effects of selected compounds of the general formula (I) according to Tables 1 and 2 on various harmful plants and an application rate corresponding to 320 g/ha and/or 80 g/ha, which were obtained by the experimental procedure mentioned above.

AMARE [9] = assay: Herbicidal pre-emergence action 2a (greenhouse pots, visual scoring); assay type: in vivo, Amaranthus retroflexus; conditions: dosage 320 g/ha, visual scoring after about 3 weeks vs untreated controls
Method in brief: as §1

LOLRI [10] = assay: as above; assay type: in vivo, Lolium rigidum; conditions: dosage 320 g/ha, visual scoring after about 3 weeks vs untreated controls
Method in brief: as §1

AVEFA [11] = assay: Herbicidal post-emergence action 1a (greenhouse pots, visual rating); assay type: in vivo, Avena fatua; conditions: rated visually about 3 weeks after treatment, 100% = plants have died, 0% = like control plants
Method in brief: as §2

DIGSA [12] = assay: Herbicidal pre-emergence action 2a (greenhouse pots, visual scoring); assay type: in vivo, Digitaria sanguinalis; conditions: dosage 320 g/ha, visual scoring after about 3 weeks
Source text: as §3

ABUTH = assay: Herbicidal post-emergence action 1a (greenhouse pots, visual rating); assay type: in vivo, Abutilon theophrasti; conditions: visual rating about 3 weeks after treatment
Method in brief: as §2

VERPE [13] = assay: Herbicidal pre-emergence action 2a (greenhouse pots, visual scoring); assay type: in vivo, Veronica persica; conditions: dosage 320 g/ha, visual scoring after about 3 weeks vs untreated controls
Method in brief: as §1

AVEFA [14] = assay: as above; assay type: in vivo, Avena fatua; conditions: dosage 320 g/ha, visual scoring after about 3 weeks
Method in brief: as §1

POLCO [15] = assay: Herbicidal post-emergence action 1a (greenhouse pots, visual rating); assay type: in vivo, Polygonum convolvulus; conditions: dosage 320 g/ha, visual rating about 3 weeks after treatment
Method in brief: as §2

SETVI [16] = assay: Herbicidal pre-emergence action 2a (greenhouse pots, visual scoring); assay type: in vivo, Setaria viridis; conditions: dosage 320 g/ha, visual scoring after about 3 weeks vs untreated controls
Method in brief: as §1

AMARE [17] = assay: Herbicidal post-emergence action 1a (greenhouse pots, visual rating); assay type: in vivo, Amaranthus retroflexus; conditions: visual rating about 3 weeks after treatment
Method in brief: as §2

DIGSA [18] = assay: as above; assay type: in vivo, Digitaria sanguinalis; conditions: rated visually about 3 weeks after treatment, 100% = plants have died, 0% = like control plants
Procedure: as §4

harmful plants [19] = assay: Herbicidal post-emergence action 1a, summary across species; assay type: in vivo; conditions: Tables A1 to A15 (320 g/ha and/or 80 g/ha)
Procedure: as §4, with “a)” for “[table] a)”, “plants.” for “plants. Tables A1 to A15 below show the effects of selected compounds of the general formula (I) according to Tables 1 and 2 on various harmful plants and an application rate corresponding to 320 g/ha and/or 80 g/ha, which were obtained by the experimental procedure mentioned above.”
Tables A1 to A15 below show the effects of selected compounds of the general formula (I) according to Tables 1 and 2 on various harmful plants and an application rate corresponding to 320 g/ha and/or 80 g/ha, which were obtained by the experimental procedure mentioned above.
For example, compound nos. I-05, I-07, I-08, I-10, I-12, I-16, I-17, I-22, I-36, I-37, I-39 and I-40 in the post-emergence method have very good action (80% to 100% herbicidal activity) against harmful plants such as Alopecurus myosuroides, Amaranthus retroflexus, Avena fatua, Lolium rigidum, Polygonum convolvulus, Setaria viridis, Veronica persica and Viola tricolor at an application rate of 0.32 kg of active substance per hectare.

SETVI [20] = assay: Herbicidal post-emergence action 1a (greenhouse pots, visual rating); assay type: in vivo, Setaria viridis; conditions: rated visually about 3 weeks after treatment, 100% = plants have died, 0% = like control plants
Method in brief: as §2

VIOTR [21] = assay: as above; assay type: in vivo, Viola tricolor; conditions: visual rating about 3 weeks after treatment
Method in brief: as §2

POLCO [22] = assay: Herbicidal pre-emergence action 2a (greenhouse pots, visual scoring); assay type: in vivo, Polygonum convolvulus; conditions: dosage 320 g/ha, visual scoring after about 3 weeks vs untreated controls
Method in brief: as §1

MATIN = assay: as above; assay type: in vivo, Matricaria inodora; conditions: dosage 320 g/ha, visual scoring after about 3 weeks vs untreated controls
Method in brief: as §1

PHBPU [23] = assay: as above; assay type: in vivo, Pharbitis purpurea; conditions: dosage 320 g/ha, visual scoring after about 3 weeks vs untreated controls
Source text: as §3

PHBPU [24] = assay: Herbicidal post-emergence action 1a (greenhouse pots, visual rating); assay type: in vivo, Pharbitis purpurea; conditions: visual rating about 3 weeks after treatment
Method in brief: as §2

Structure (SMILES) | Post-emergence action against LOLRI in % (LOLRI [2]; Dosage 320 g/ha) [%] | Pre-emergence action against ECHCG in % (ECHCG [3]) [%] | Pre-emergence action against ALOMY in % (ALOMY [4]) [%] | Post-emergence action against VERPE in % (VERPE [6]; dosage 320 g/ha) [%] | Post-emergence action against ALOMY in % (ALOMY [7]; Dosage 320 g/ha) [%] | Post-emergence action against ECHCG in % (ECHCG [8]) [%] | Pre-emergence action against AMARE in % (AMARE [9]) [%] | Pre-emergence action against LOLRI in % (LOLRI [10]) [%] | Post-emergence action against AVEFA in % (AVEFA [11]; Dosage 80 g/ha) [%] | Post-emergence action against AVEFA in % (AVEFA [11]; Dosage 320 g/ha) [%] | Post-emergence action against ABUTH in % (ABUTH; dosage 80 g/ha) [%] | Post-emergence action against ABUTH in % (ABUTH; dosage 320 g/ha) [%] | Pre-emergence action against VERPE in % (VERPE [13]) [%] | Pre-emergence action against AVEFA in % (AVEFA [14]) [%] | Pre-emergence action against SETVI in % (SETVI [16]) [%] | Post-emergence action against AMARE in % (AMARE [17]; dosage 80 g/ha) [%] | Post-emergence action against AMARE in % (AMARE [17]; dosage 320 g/ha) [%] | Post-emergence action against SETVI in % (SETVI [20]; Dosage 320 g/ha) [%] | Pre-emergence action against POLCO in % (POLCO [22]) [%] | further results
COC(=O)[C@@H](C)Oc1nn(-c2cnccn2)c(-c2ccc(F)nc2)c1Br [Example I-17] | 90 | 100 | 100 | 90 | 100 | 90 | 100 | 100 | 90 | 100 | 80 | 80 | 100 | 100 | 100 | 80 | 80 | 80 | 90 | Pre-emergence action against VIOTR in % (VIOTR [1]): 100%; Post-emergence action against LOLRI in % (LOLRI [2]; Dosage 80 g/ha): 90%; herbicidal efficacy against harmful plants in the case of pre-emergence treatment (in words) (harmful plants [5]): good herbicidal efficacy; Post-emergence action against ALOMY in % (ALOMY [7]; Dosage 80 g/ha): 100%; Pre-emergence action against DIGSA in % (DIGSA [12]): 100%; Post-emergence action against POLCO in % (POLCO [15]): 90%; Post-emergence action against DIGSA in % (DIGSA [18]; Dosage 80 g/ha): 80%; Post-emergence action against DIGSA in % (DIGSA [18]; Dosage 320 g/ha): 90%; herbicidal efficacy against harmful plants in the case of post-emergence treatment (in words) (harmful plants [19]): good herbicidal efficacy; Post-emergence action against VIOTR in % (VIOTR [21]; dosage 80 g/ha): 90%; Post-emergence action against VIOTR in % (VIOTR [21]; dosage 320 g/ha): 90%
O=C(O)COc1nn(-c2cnccn2)c(-c2cncc(F)c2)c1Br [Example I-93] | 90 | 100 | 90 | 80 | 100 | 90 | 100 | 100 | 100 | 100 | 80 | 80 | 100 | 100 | 100 | 90 | 90 | 90 | 100 | Post-emergence action against VERPE in % (VERPE [6]; dosage 80 g/ha): 80%; Pre-emergence action against MATIN in % (MATIN): 100%; Pre-emergence action against PHBPU in % (PHBPU [23]): 100%; Post-emergence action against SETVI in % (SETVI [20]; Dosage 80 g/ha): 90%; Post-emergence action against PHBPU in % (PHBPU [24]; dosage 80 g/ha): 90%; Post-emergence action against PHBPU in % (PHBPU [24]; dosage 320 g/ha): 90%
